From patent US20250325467A1, “COMPOSITIONS FOR PREVENTING OR TREATING SKIN AGING” (ESTETRA SRL, priority 2021, published 2025)
Entries after “also recorded” stand apart in the source; their conditions may differ.

What was measured:
IL-6 release from NHEKs = assay: PMA/A23187-induced IL-6 release from NHEKs (ELISA, normalized to viability); format: cell-based, human; conditions: E2, 3 concentrations assessed (not specified); 24 h
Procedure: The Normal Human foreskin-derived Epidermal Keratinocytes (NHEKs, Lonza, 00192906), isolated from foreskin of 3 Caucasian donors, were grown in Epilife medium (Fisher Scientific, M-EPI-500-A) supplemented with Human Keratinocyte Growth Supplement (HKGS, Fisher Scientific, S-001-5) and antibiotics (Gentamycin, Fisher Scientific, 15710-049). The cells were maintained in a humidified incubator at 37° C. with a 5% CO2 atmosphere.
E4 and E2, provided as powder, were dissolved in 100% ethanol at 0.1M. They were then further diluted in ethanol and in culture medium to reach the appropriate concentrations. […] Practically, stock solutions 1000-fold concentrated were prepared in 100% ethanol, aliquoted and stored at −20° C. until cell application.
In order to induce the release of IL-6, NHEKs were exposed for 24 h with phorbol myristate acetate (PMA) at 10 ng/mL, in combination with calcium ionophore A23187 (Sigma Aldrich, C5722) at 2 μM. The treatments with the test or reference items were performed simultaneously with the inflammatory challenge. […] E4 was applied at 10^−4, 10^−5, 10^−6, 10^−7 and 10^−8 M and E2 at 10^−5, 10^−6, 10^−7, 10^−8 and 10^−9 M EtOH at 0.1% was tested as solvent control. Dexamethasone at 10 μM was used as anti-inflammatory reference. At the end of 24 h treatment, supernatants were harvested and stored at −20° C., and cell viability assay was assessed by MTS (see section 5). The kinetics of the treatments is outlined in FIG. 12. All the treatments were performed in triplicates (n=3).
The quantification of the release of inflammatory markers was performed using specific ELISA kits, based on standard curves, according to supplier's specifications. The results were then normalized to the corresponding cell viability (obtained by MTS assay).
The supplier's reference of the kits used for IL-6 quantification is as follows: IL-6, BioTechne, D6050.
At the end of the treatments and culture media collection, the viability of the cells was evaluated using the MTS (3-(4,5-dimethythiazol-2-yl)-5-(3-carboxy-methoxyphenyl)-2-(4-sulfophenyl)-2H-tetrazolium) assay. The effects of the treatments were compared to the untreated control condition and to the solvent control (EtOH 0.1%). The viability data were used in order to normalize the quantities of released inflammatory mediators.
NHEKs were treated as described in the methodology section. The quantification of IL-6 by ELISA was performed from the collected supernatants, following the instructions of the kit provider. Only 3 concentrations of the test items (chosen in accordance with the Sponsor following the results of the viability assay) were assessed in the ELISA.

[1] = system: Normal Human Dermal Fibroblasts (NHDFs); assay: Colonization of a standard acellular area (IBIDI chamber gap closure) by fibroblasts; format: cell-based; conditions: vs ethanol control; for NHDF Proliferation & Migration (colonization of the acellular area): absence of MMC, 6 h and 24 h
Procedure: (§1) The study consists in an in vitro assay aiming to evaluate the properties of E4 and E2 at 4 concentrations each on keratinocytes and fibroblasts. In this assay, the measurement of the colonization of a standard acellular surface generated from a confluent monolayer of cells using a dedicated culture device (IBIDI chamber) is performed. The assay is performed in absence and in presence of a proliferation inhibitor to focus on cell proliferation and migration or on migration only, respectively.
Normal Human forskin-derived Dermal Fibroblats (NHDFs, ATCC) cells were grown in phenol-free Dulbecco's Modified Eagle Medium (DMEM, ThermoFisher Scientific) supplemented with 10% of Foetal Bovine Serum (FBS, ThermoFisher Scientific), L-glutamine and antibiotics. The cells were maintained in a humidified incubator at 37° C. with a 5% CO2 atmosphere.
(§2) Cells were plated in 2-well silicone inserts with a defined cell free gap (IBIDI chambers; IBIDI GmbH, 80209) that was previously inserted on 12-well culture plates. This culture device allows to create a standardized 500 μm±100 μm cell free gap for monitoring cell colonization. 24 h after seeding, when the culture reached high confluency, cells in the insert were treated, or not, with mitomycin C (MMC) at 10 μg/ml during 2 h. After these 2 hours, the insert was removed, and cells were treated with E2 or E4 in presence or not of MMC for additional 2 h. Then, if appropriate, the culture medium was removed and cells were treated with E2 or E4 for 22 h, in absence of MMC.
(§3) For the assay, keratinocytes were plated in Epilife medium without HKGS and all the treatments were performed in this medium. Fibroblasts were plated in DMEM medium containing only 2,5% of FBS and the treatments were performed in absence of FBS.
(§4) E2 and E4 were applied at 4 concentrations each (10^−7M, 10^−8M, 10^−9M, 10^−10M). In parallel, cells were treated with a positive control (HKGS 1% for human keratinocytes and PDGF-BB at 10 ng/ml for human fibroblasts).
(§5) To monitor cell colonization and to evaluate the gap closure rate, pictures of the gap were taken after different times: at time 0 h, corresponding to the beginning of the treatment with E2 or E4 and to the removal of the culture insert, at time 6 h and at time 24 h (corresponding to the end of the treatments with E2 or E4). Pictures were taken with a microscope Zeiss (Axiover 25-10× objective) and with a camera Invenio2EIII (DeltaPix—Lux-Optic). The colonized areas were quantified from the pictures by the use of the WimAsis platform—WimScratch software. For each insert, 3 pictures were taken at each time. As each condition was performed in triplicates, it means a total of 9 pictures per condition and per time point of acquisition

[2] = system: Normal Human Epidermal Keratinocytes (NHEKs); assay: Colonization of a standard acellular area (IBIDI chamber gap closure) by keratinocytes; format: cell-based; conditions: for colonization of the cell-free area by NHEK, overall: all four concentrations (10^−7M to 10^−10M), vs ethanol control
Procedure: as §1
The study was performed using cultures of Normal Human foreskin-derived Epidermal Keratinocytes (NHEKs, Lonza). The cells were grown in serum free Epilife medium (ThermoFisher Scientific) supplemented with Human Keratinocyte Growth Supplement (HKGS, ThermoFisher Scientific) and antibiotics. The cells were maintained in a humidified incubator at 37° C. with a 5% CO2 atmosphere.
as §2, §3, §4, §5

[3] = system: mouse lymphoma cell line L5178Y TK^+/−; assay: Generation of reactive oxygen species (ROS) in mouse lymphoma cells; format: cell-based; conditions: up to 100 μM; 3 h exposure; vs vehicle control
Procedure: The objective of the study was to investigate the generation of reactive oxygen species (ROS) induced by the test item, estetrol (E4), in a mouse lymphoma cell line L5178Y TK^+/−.
L5178Y TK^+/− cells in logarithmic phase of growth were plated in black 96 well cell culture plates at 1×10^4 cells in 90 μL of cell culture media. Controls and test item in triplicate were applied to the cells as a 10× concentrate in 10 μL of a 10% ethanol solution in PBS (final concentration of ethanol on plate was 1%). Cells were incubated for 3 hours at 37° C., 5% CO2, and the generation of ROS was evaluated by fluorescence with a ROS reagent: the ROS reagent was freshly prepared by dissolving one ampoule of reagent (50 μg) in 70 μL DMSO and further diluting this with 2.1 mL of pre-warmed PBS. 10 μL of ROS reagent was added to each well and the plate were shaken for 30 seconds in the dark. The plates were incubated approximately at 37° C., 5% CO2 for 1 h 30 min and fluorescence was read on a plate scanner with excitation at 492 nm and emission at 520 nm.

Compound | PMA/A23187-induced IL-6 release (IL-6 release from NHEKs) | NHDF Proliferation & Migration (colonization of the acellular area) ([1]; 10^−7M) | NHDF Proliferation & Migration (colonization of the acellular area) ([1]; 10^−8M) | NHDF Proliferation & Migration (colonization of the acellular area) ([1]; 10^−10M) | colonization of the cell-free gap by NHDF, overall ([1]; presence of MMC, all four concentrations (10^−7M to 10^−10M)) | effect on the gap closure by NHEK ([2]; 10^−7M to 10^−9 M, after 24 h of treatment, significant only for 10^−8M) | colonization of the cell-free area by NHEK, overall ([2]; absence of MMC) | colonization of the cell-free area by NHEK, overall ([2]; presence of MMC) | levels of ROS (controls) [3]
C[C@]12CC[C@@H]3c4ccc(O)cc4CC[C@H]3[C@@H]1CC[C@@H]2O [E2, 17β-estradiol, reference compound] | unaffected; also recorded: not observed | increased the colonization of the acellular area; also recorded: significant activity | increased the colonization of the acellular area; also recorded: significant activity | increased the colonization of the acellular area; also recorded: significant activity | not able to significantly increase the colonization of the cell-free gap | inhibitor effect on the gap closure | not able to significantly increase the colonization of the cell-free area; also recorded: no significant effect on keratinocyte proliferation or migration | not able to significantly increase the colonization of the cell-free area; also recorded: no significant effect on keratinocyte proliferation or migration | 
OO [hydrogen peroxide, reference compound] |  |  |  |  |  |  |  |  | tendency to increase the levels of ROS
